From US12501899B2, “Mite infestation treatment” (priority 2019, dated 2025)
Where two headings read alike, the source gives them in different places.

Experiments:
Varroa destructor = conditions: 1 μg/μL, 1 μL on bee thorax; time not stated (monitored up to 24 hours)
Ixodes ricinus = experiment: Oral acaricidal test on ticks in membrane feeding wells with treated blood; type: in vivo; conditions: for average percentage of affected adult ticks (convulsion, morbidity or death of ticks): 100 ppm oral; for mortality at 100 ppm: Ixodes ricinus, po
Outline: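 Ixodes ricinus nymphs and adults (batches of 12) fed through silicone membranes on ATP-enriched blood at 37 °C; after attachment (24 h), compounds at 1, 10, 100 ppm in 0.1% DMSO added for 24 h, blood changed at 12 h. Mortality, attachment and convulsions scored at 1–96 h.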

In the case of Cc1ccc(/N=C/N(C)/C=N/c2ccc(C)cc2C)c(C)c1 [Amitraz], the “Varroa mites killed / mortality for Varroa mites” value (Varroa destructor) is reported as 100%, the “average percentage of affected adult ticks (convulsion, morbidity or death of ticks)” value (Ixodes ricinus; adult ticks, 1 h) is reported as 66.8% and the “average percentage of affected adult ticks (convulsion, morbidity or death of ticks)” value (Ixodes ricinus; adult ticks, 3 h) is reported as 56.2%. For the same molecule, the “average percentage of affected adult ticks (convulsion, morbidity or death of ticks)” value (Ixodes ricinus; adult ticks, 6 h) was 53.7%, the “average percentage of affected adult ticks (convulsion, morbidity or death of ticks)” value (Ixodes ricinus; adult ticks, 12 h) was 56.2% and the “average percentage of affected adult ticks (convulsion, morbidity or death of ticks)” value (Ixodes ricinus; adult ticks, 24 h) was 66.5%. The “average percentage of affected adult ticks (convulsion, morbidity or death of ticks)” value (Ixodes ricinus; adult ticks, 48 h) was 83.1%, the “average percentage of affected adult ticks (convulsion, morbidity or death of ticks)” value (Ixodes ricinus; adult ticks, 72 h) was 100.0% and the “average percentage of affected adult ticks (convulsion, morbidity or death of ticks)” value (Ixodes ricinus; adult ticks, 96 h) was 100.0%. The “detachment of adult ticks (in words)” value (Ixodes ricinus; 100 ppm, adult ticks) was “strong detachment”, the “average percentage of attached adult ticks” value (Ixodes ricinus; 100 ppm, adult ticks, 1 h) was 66.8% and the “average percentage of attached adult ticks” value (Ixodes ricinus; 100 ppm, adult ticks, 3 h) was 56.2%. For the same molecule, the “average percentage of attached adult ticks” value (Ixodes ricinus; 100 ppm, adult ticks, 6 h) was 53.7%, the “average percentage of attached adult ticks” value (Ixodes ricinus; 100 ppm, adult ticks, 12 h) was 53.7% and the “average percentage of attached adult ticks” value (Ixodes ricinus; 100 ppm, adult ticks, 24 h) was 53.7%. For the same molecule, the “average percentage of attached adult ticks” value (Ixodes ricinus; 100 ppm, adult ticks, 48 h) was 53.7%, the “average percentage of attached adult ticks” value (Ixodes ricinus; 100 ppm, adult ticks, 72 h) was 53.7% and the “average percentage of attached adult ticks” value (Ixodes ricinus; 100 ppm, adult ticks, 96 h) was 53.7%. For the same molecule, the “effect on nymphs (convulsion, morbidity or death), in words” value (Ixodes ricinus; 100 ppm, nymphs, compared with SN0305, SN0306, SN0307) was “comparable result”, the mortality at 100 ppm (Ixodes ricinus; adult ticks, 100 ppm, 1 h, read-out: average percentage of adult tick mortality (moribund or dead adult ticks)) was 0% and the mortality at 100 ppm (Ixodes ricinus; adult ticks, 100 ppm, 3 h, read-out: average percentage of adult tick mortality (moribund or dead adult ticks)) was 2.8%. It also gave a mortality at 100 ppm (Ixodes ricinus; adult ticks, 100 ppm, 6 h, read-out: average percentage of adult tick mortality (moribund or dead adult ticks)) of 10.1%, a mortality at 100 ppm (Ixodes ricinus; adult ticks, 100 ppm, 12 h, read-out: average percentage of adult tick mortality (moribund or dead adult ticks)) of 17.4% and a mortality at 100 ppm (Ixodes ricinus; adult ticks, 100 ppm, 24 h, read-out: average percentage of adult tick mortality (moribund or dead adult ticks)) of 27.7%. The mortality at 100 ppm (Ixodes ricinus; adult ticks, 100 ppm, 48 h, read-out: average percentage of adult tick mortality (moribund or dead adult ticks)) was 58.9%, the mortality at 100 ppm (Ixodes ricinus; adult ticks, 100 ppm, 72 h, read-out: average percentage of adult tick mortality (moribund or dead adult ticks)) was 84.6% and the mortality at 100 ppm (Ixodes ricinus; adult ticks, 100 ppm, 96 h, read-out: average percentage of adult tick mortality (moribund or dead adult ticks)) was 97.5%. The mortality at 100 ppm (Ixodes ricinus; nymphs, 100 ppm, 1 h, read-out: average percentage of mortality of tick nymphs (moribund or dead nymphs)) was 0%, the mortality at 100 ppm (Ixodes ricinus; nymphs, 100 ppm, 3 h, read-out: average percentage of mortality of tick nymphs (moribund or dead nymphs)) was 14% and the mortality at 100 ppm (Ixodes ricinus; nymphs, 100 ppm, 6 h, read-out: average percentage of mortality of tick nymphs (moribund or dead nymphs)) was 38.7%. The mortality at 100 ppm (Ixodes ricinus; nymphs, 100 ppm, 12 h, read-out: average percentage of mortality of tick nymphs (moribund or dead nymphs)) was 74.9%, the mortality at 100 ppm (Ixodes ricinus; nymphs, 100 ppm, 24 h, read-out: average percentage of mortality of tick nymphs (moribund or dead nymphs)) was 100% and the mortality at 100 ppm (Ixodes ricinus; nymphs, 100 ppm, 48 h, read-out: average percentage of mortality of tick nymphs (moribund or dead nymphs)) was 100%. It also gave a mortality at 100 ppm (Ixodes ricinus; nymphs, 100 ppm, 72 h, read-out: average percentage of mortality of tick nymphs (moribund or dead nymphs)) of 100% and a mortality at 100 ppm (Ixodes ricinus; nymphs, 100 ppm, 96 h, read-out: average percentage of mortality of tick nymphs (moribund or dead nymphs)) of 100%.
